“And” between values parts separate entries of the source, which are not always exact repeats. Equal entries are not always repeated. Non-standard residues stand in square brackets, D forms with d. Residues, ends and D or L forms follow the SMILES beside them.
Tests used:
[1] = biological target: T1, VIP-receptor 1 (VIPR1) (Homo sapiens, UniProt P32241); experiment: Inhibition of VIP-induced cAMP production in SGS-72 cells
T1 sequence (P32241 31-457): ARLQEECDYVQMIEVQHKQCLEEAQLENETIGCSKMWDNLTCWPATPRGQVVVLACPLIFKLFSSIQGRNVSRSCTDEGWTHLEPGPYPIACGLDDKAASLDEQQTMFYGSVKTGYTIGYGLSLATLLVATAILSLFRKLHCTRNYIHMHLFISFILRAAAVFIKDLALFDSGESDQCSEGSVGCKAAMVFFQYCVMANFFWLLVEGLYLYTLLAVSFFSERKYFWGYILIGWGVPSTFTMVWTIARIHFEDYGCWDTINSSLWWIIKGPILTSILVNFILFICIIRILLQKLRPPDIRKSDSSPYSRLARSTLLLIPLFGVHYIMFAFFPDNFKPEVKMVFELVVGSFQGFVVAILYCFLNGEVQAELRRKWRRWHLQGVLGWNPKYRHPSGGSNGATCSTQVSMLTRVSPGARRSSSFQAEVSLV

[2] = biological target: β2-adrenergic receptor (Homo sapiens, UniProt P07550); experiment: Effect on isoproterenol-stimulated cAMP production in SGS-72 cells; settings: Fig. S1b
[3] = system: SGS-72 cells; experiment: Effect on basal cAMP levels in SGS-72 cells; settings: Fig. S1a
[4] = biological target: proteinase K (Parengyodontium album, UniProt P06873); experiment: in vitro; settings: fungal, proteinase K (isolated protease)
[5] = biological target: T2, PTHR1 (Homo sapiens, UniProt Q03431); experiment: PTHR1 competition binding assay with 125I-PTH
T2 sequence (Q03431 27-593): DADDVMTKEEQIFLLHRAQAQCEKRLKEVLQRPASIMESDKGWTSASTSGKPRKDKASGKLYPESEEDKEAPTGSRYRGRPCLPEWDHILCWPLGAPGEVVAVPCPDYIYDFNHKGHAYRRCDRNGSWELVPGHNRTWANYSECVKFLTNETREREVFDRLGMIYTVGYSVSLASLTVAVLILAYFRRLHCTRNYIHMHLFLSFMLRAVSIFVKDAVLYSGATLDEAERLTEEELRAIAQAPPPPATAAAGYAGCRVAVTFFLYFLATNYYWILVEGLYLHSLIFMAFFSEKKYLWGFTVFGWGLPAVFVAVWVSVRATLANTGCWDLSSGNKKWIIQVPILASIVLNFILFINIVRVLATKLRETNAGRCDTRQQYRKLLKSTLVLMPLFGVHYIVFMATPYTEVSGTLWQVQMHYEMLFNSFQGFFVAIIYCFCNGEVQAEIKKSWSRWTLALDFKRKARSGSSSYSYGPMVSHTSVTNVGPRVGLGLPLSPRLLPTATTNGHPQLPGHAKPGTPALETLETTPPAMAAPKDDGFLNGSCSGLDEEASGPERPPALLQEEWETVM

[6] = biological target: T3, bovine trypsin (Bos taurus, UniProt P00760); experiment: in vitro; assay type: in vitro ADME
T3 sequence (P00760 24-246): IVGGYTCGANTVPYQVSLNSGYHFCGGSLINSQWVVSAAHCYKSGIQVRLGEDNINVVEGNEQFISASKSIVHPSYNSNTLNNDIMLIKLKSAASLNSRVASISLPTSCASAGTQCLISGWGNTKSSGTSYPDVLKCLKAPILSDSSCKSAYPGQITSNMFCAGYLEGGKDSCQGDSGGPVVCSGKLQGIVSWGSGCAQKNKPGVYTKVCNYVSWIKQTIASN

[7] = system: female CD1 mice; experiment: Antagonism of PTH; assay type: in vivo, mouse; settings: antagonist 500 nmol/kg s.c. one hour after PTH(1–34) 10 nmol/kg
[8] = system: constitutively active PTHR1 variants; settings: cited from earlier work
[9] = prior pharmacokinetic/pharmacodynamic data; cited from earlier work
[10] = radiolabeled peptide; cited from earlier work
[11] = biological target: T2, PTHR1; experiment: Antagonism of agonist-stimulated cAMP generation in SGS-72 cells; assay type: cell-based

proteinase K, sequence (P06873 106-384): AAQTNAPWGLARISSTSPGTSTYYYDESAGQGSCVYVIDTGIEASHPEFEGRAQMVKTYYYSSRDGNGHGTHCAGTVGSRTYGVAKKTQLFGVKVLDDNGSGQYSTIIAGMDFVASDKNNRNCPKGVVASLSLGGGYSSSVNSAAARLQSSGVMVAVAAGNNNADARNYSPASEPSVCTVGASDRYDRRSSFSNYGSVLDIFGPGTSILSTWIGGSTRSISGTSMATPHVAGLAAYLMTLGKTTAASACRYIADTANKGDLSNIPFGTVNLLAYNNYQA
β2-adrenergic receptor, sequence (P07550 whole entry): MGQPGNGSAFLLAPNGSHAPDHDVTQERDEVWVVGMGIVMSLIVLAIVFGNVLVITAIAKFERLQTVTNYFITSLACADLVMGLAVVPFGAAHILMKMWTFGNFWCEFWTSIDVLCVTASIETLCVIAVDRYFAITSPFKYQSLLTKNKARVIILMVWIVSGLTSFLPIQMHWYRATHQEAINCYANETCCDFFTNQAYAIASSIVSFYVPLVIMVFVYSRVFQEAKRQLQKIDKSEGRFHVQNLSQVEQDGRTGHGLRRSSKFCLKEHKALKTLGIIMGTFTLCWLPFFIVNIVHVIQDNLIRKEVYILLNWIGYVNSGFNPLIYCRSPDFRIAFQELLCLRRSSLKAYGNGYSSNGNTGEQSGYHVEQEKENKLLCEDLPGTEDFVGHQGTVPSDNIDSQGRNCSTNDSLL

| SMILES | IC50 [1] | Effect on stimulation of cAMP production caused by isoproterenol [2] | Effect on low basal cAMP levels in SGS-72 cells [3] | half-life [4] | IC50 [5] | Protease stability, half life, Trypsin [6] | half-life ([6]; bovine, isolated enzyme trypsin) | Effect on PTH(1–34)-induced blood Ca2+ response, antagonist given after agonist [7] | Effect on PTH(1–34)-induced blood Pi response, antagonist given after agonist [7] | Inverse agonism of cAMP signaling at constitutively active PTHR1 variants [8] | Half-life of clearance from the circulation [9] | Stability in plasma [10] | IC50 [11] | Reduction in M-PTH(1–11) inhibition potency of 2 in comparison to 1 ([11]; SGS-72 cells, cAMP response to M-PTH(1–11)) |
| --- | --- | --- | --- | --- | --- | --- | --- | --- | --- | --- | --- | --- | --- | --- |
| CSCC[C@H](NC(=O)[C@H](CO)NC(=O)[C@H](CO)NC(=O)[C@H](CC(C)C)NC(=O)[C@H](Cc1c[nH]cn1)NC(=O)[C@H](CCCCN)NC(=O)[C@@H](Cc1c[nH]c2ccccc12)NC(=O)[C@H](CC(C)C)NC(=O)[C@H](CC(N)=O)NC(=O)[C@H](Cc1c[nH]cn1)NC(=O)[C@H](CCSC)NC(=O)[C@@H](N)Cc1ccccc1)C(=O)N[C@@H](CCC(=O)O)C(=O)N[C@@H](CCCNC(=N)N)C(=O)N[C@H](C(=O)N[C@@H](CCC(=O)O)C(=O)N[C@@H](Cc1c[nH]c2ccccc12)C(=O)N[C@@H](CC(C)C)C(=O)N[C@@H](CCCNC(=N)N)C(=O)N[C@@H](CCCCN)C(=O)N[C@@H](CCCCN)C(=O)N[C@@H](CC(C)C)C(=O)N[C@@H](CCC(N)=O)C(=O)N[C@@H](CC(=O)O)C(=O)N[C@H](C(=O)N[C@@H](Cc1c[nH]cn1)C(=O)N[C@@H](CC(N)=O)C(=O)N[C@@H](Cc1ccccc1)C(N)=O)C(C)C)C(C)C [Peptide 1, bPTH(7–34) DTrp^12] (H-FMHNL[dW]KHLSSMERVEWLRKKLQDVHNF-NH2; N-terminus assumed) | > 1000 nM | neither α-peptide 1 nor α/β-peptide 2 substantially reduces | neither α-peptide 1 nor α/β-peptide 2 substantially reduces | 0.13 min | 4.7 ± 1.2 nM | 0.7 min | 0.7 min | only small effects | only small effects | acts as an inverse agonist | – | – | – | – |
| CC[C@H](C)[C@H](NC(=O)[C@H](CCC(=O)O)NC(=O)[C@H](CO)NC(=O)[C@@H](NC(=O)[C@@H](N)CO)C(C)C)C(=O)N[C@@H](CCC(N)=O)C(=O)N[C@@H](CC(C)C)C(=O)N[C@@H](CCSC)C(=O)N[C@@H](Cc1cnc[nH]1)C(=O)N[C@@H](CC(N)=O)C(=O)N[C@@H](CC(C)C)C(=O)NCC(=O)N[C@@H](CCCCN)C(=O)N[C@@H](Cc1cnc[nH]1)C(=O)N[C@@H](CC(C)C)C(=O)N[C@@H](CC(N)=O)C(=O)N[C@@H](CO)C(=O)N[C@@H](CCSC)C(=O)N[C@@H](CCC(=O)O)C(=O)N[C@@H](CCCN=C(N)N)C(=O)N[C@H](C(=O)N[C@@H](CCC(=O)O)C(=O)N[C@@H](Cc1c[nH]c2ccccc12)C(=O)N[C@@H](CC(C)C)C(=O)N[C@@H](CCCN=C(N)N)C(=O)N[C@@H](CCCCN)C(=O)N[C@@H](CCCCN)C(=O)N[C@@H](CC(C)C)C(=O)N[C@@H](CCC(N)=O)C(=O)N[C@@H](CC(=O)O)C(=O)N[C@H](C(=O)N[C@@H](Cc1cnc[nH]1)C(=O)N[C@@H](CC(N)=O)C(=O)N[C@@H](Cc1ccccc1)C(=O)O)C(C)C)C(C)C [PTH(1–34)] | – | – | – | – | – | – | – | – | – | – | 5 to 10 min | highly stable in plasma | – | – |
| CSCC[C@@H](CC(=O)N[C@@H](CCC(=O)O)C(=O)N[C@@H](CCCNC(=N)N)C(=O)N[C@H](C(=O)N[C@@H](CCC(=O)O)CC(=O)N[C@@H](Cc1c[nH]c2ccccc12)C(=O)N[C@@H](CC(C)C)C(=O)N[C@@H](CCCNC(=N)N)C(=O)N[C@@H](CCCCN)CC(=O)N[C@@H](CCCCN)C(=O)N[C@@H](CC(C)C)C(=O)N[C@@H](CCC(N)=O)C(=O)N[C@@H](CC(=O)O)CC(=O)N[C@H](C(=O)N[C@@H](Cc1c[nH]cn1)C(=O)N[C@@H](CC(N)=O)C(=O)N[C@H](CC(N)=O)Cc1ccccc1)C(C)C)C(C)C)NC(=O)[C@H](CO)NC(=O)[C@H](CO)NC(=O)[C@H](CC(C)C)NC(=O)C[C@H](Cc1c[nH]c2ccccc12)NC(=O)[C@H](CCCCN)NC(=O)[C@@H](Cc1c[nH]c2ccccc12)NC(=O)[C@H](CC(C)C)NC(=O)[C@H](CC(N)=O)NC(=O)[C@H](Cc1c[nH]cn1)NC(=O)[C@H](CCSC)NC(=O)[C@@H](N)Cc1ccccc1 [Peptide 2] | > 1000 nM | neither α-peptide 1 nor α/β-peptide 2 substantially reduces | neither α-peptide 1 nor α/β-peptide 2 substantially reduces | 2.5 min | 4.5 ± 1.2 nM | > 20 min | – | only small effects | only small effects | – | – | – | 6.15 nM and 10.6 nM and 2.07 nM | < 5 fold |
